From ChEMBL document CHEMBL5727627, “Tetrahydropyrimidodiazepine and dihydropyridodiazepine compounds for treating pain and pain related conditions” (2020)

Molecular target: Voltage-dependent calcium channel subunit alpha-2/delta-1 (Homo sapiens, UniProt P54289)
Experiment: Binding Assay: α2δ-1: Binding Assay to Human α2δ-1 Subunit of Cav2.2 Calcium Channel.Human α2δ-1 enriched membranes (2.5 μg) were incubated with 15 nM of radiolabeled [3H]-Gabapentin in assay buffer containing Hepes-KOH 10 mM, pH 7.4.NSB (non specific binding) was measured by adding 10 μM pregabalin. After 60 min incubation at 27° C., binding reaction was terminated by filtering through Multiscreen GF/C (Millipore) presoaked in 0.5% polyethyleneimine in Vacuum Manifold Station, followed by 3 washes with ice-cold filtration buffer containing 50 mM Tris-HCl, pH 7.4.Filter plates were dried at 60° C. for 1 hour and 30 μl of scintillation cocktail were added to each well before radioactivity reading.Readings were performed in a Trilux 1450 Microbeta radioactive counter (Perkin Elmer).

Chain of Voltage-dependent calcium channel subunit alpha-2/delta-1 (P54289 25-956 limits assumed): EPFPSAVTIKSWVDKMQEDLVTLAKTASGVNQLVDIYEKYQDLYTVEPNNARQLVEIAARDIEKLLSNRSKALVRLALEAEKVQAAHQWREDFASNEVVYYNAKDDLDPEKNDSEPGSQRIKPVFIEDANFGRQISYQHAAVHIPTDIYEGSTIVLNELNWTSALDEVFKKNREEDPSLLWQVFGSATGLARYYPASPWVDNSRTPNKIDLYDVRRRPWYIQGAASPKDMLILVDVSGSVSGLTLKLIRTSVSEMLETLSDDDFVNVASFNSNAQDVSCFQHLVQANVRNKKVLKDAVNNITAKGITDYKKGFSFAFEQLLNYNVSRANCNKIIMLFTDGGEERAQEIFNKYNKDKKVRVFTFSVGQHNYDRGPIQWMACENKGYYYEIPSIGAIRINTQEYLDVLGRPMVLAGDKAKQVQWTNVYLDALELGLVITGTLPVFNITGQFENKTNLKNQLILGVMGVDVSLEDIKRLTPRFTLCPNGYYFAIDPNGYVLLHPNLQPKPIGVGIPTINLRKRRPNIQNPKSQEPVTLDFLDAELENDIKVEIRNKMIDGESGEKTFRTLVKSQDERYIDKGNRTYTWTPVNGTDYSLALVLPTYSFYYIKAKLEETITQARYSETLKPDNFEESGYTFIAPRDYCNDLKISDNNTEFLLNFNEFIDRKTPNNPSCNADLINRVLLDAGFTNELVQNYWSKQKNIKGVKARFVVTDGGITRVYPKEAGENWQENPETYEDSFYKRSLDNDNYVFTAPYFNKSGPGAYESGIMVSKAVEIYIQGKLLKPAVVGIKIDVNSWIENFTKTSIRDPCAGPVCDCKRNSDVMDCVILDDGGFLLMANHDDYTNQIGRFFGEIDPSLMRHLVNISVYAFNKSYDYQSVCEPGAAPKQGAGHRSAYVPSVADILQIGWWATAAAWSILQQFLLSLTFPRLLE
Chain of Voltage-dependent calcium channel subunit alpha-2/delta-1 (P54289 957-1103 limits assumed): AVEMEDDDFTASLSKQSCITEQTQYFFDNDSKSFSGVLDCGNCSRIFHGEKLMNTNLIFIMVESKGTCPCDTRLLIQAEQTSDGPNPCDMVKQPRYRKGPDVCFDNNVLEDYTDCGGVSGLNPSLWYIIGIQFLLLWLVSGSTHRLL

Row | SMILES | Ki
1 | CNCC[C@H](Oc1cc(F)ccc1CN1CCN(C)c2nc(OC)ncc2C1=O)c1cccs1 | > 3 µM
2 | CSc1ncc2c(n1)N(C)CCN(c1cccc(-c3nnc(CN(C)C(=O)OC(C)(C)C)o3)c1)C2=O | > 3 µM

Results, then the compound that gave them:

Row | Ki | SMILES
3 | > 3 µM | CSc1ncc2c(n1)N(C)CCN(c1cccc(OC(CCN(CCF)C(=O)OC(C)(C)C)c3cccs3)c1)C2=O (stereo not given)
4 | > 3 µM | CCNc1cc2c(cn1)C(=O)N(c1cccc(COC(CCN(C)C(=O)OC(C)(C)C)c3ccccc3)c1)CCN2C (stereo not given)
5 | > 3 µM | CCNc1cc2c(cn1)C(=O)N(c1cccc(OC(CCN(C)C(=O)OC(C)(C)C)c3ccccc3)c1)CCN2C (stereo not given)
